# Measured values: patent US20220370606A1, “Combination Treatments Of Cancer Comprising A TLR Agonist” (Pfizer Inc., priority 2018, published 2022)
# Experiments:
# Type in all cases: in vivo, mouse
# [1] = tested on: dendritic cells in the spleen (CD11c+/CD11b+/CD8+ cells); assay: Example 5: activated dendritic cells in the spleen of B16F10 tumor mice (FACS); conditions: 24 hours after treatment, 5 mg/kg, mean from 5 mice
# Method: (§1) This example illustrates activation of immune cells in a mouse tumor model in response to a TLR3 or TLR9 agonist.
# (§2) Six to eight week old female C57BL/6 mice were purchased from the Jackson Laboratories. All animals were housed in a pathogen free vivarium facility at Pfizer and experiments were conducted according to the protocols in accordance with the Institutional Animal Care and Use Committee (IACUC) guidelines.
# (§3) The B16F10 melanoma cell line was purchased from American Type Culture Collection (ATCC). Cells were cultured in Dulbecco's Modified Eagle's Medium (DMEM) supplemented with 10% fetal bovine serum (FBS), 2 mM L-glutamine at 37° C. in 5% carbon dioxide (CO2), and IMPACT-tested for pathogens at Research Animal Diagnostic Laboratory (RADIL) (Columbia, Mo.). Pathogen-free cells growing in an exponential growth phase were harvested and used for tumor inoculation.
# (§4) The TLR3 agonist was polyinosine-polycytidylic acid [poly(I:C)], high molecular weight [a synthetic analog of double-stranded RNA (dsRNA)], purchased from InvivoGen. The TLR9 agonist was CpG24555
# (§5) On day 0, C57BL/6 mice were inoculated subcutaneously at the right flank with 5×10^5 B16F10 cells in PBS. […] The treatment groups were 1) PBS (control); 2) poly(I:C) (TLR3 agonist); 3) CpG24555 (TLR9 agonist). Treatment was started on the same day as randomization. Poly(I:C) and CpG24555 were dosed at 5 mg/kg, in phosphate buffered saline (PBS) (Life Technologies).
# (§6) 24 hours after treatment, the mice were euthanized and their spleen, draining lymph nodes, and B16F10 tumor were harvested. The harvested spleen, draining lymph nodes, and B16F10 tumor were dissociated to single cell suspensions, and then stained for evaluation of multiple markers by FACS analysis. To evaluate dendritic cell activation, cells were incubated with anti-CD11c, anti-CD11b, and anti-CD8 mAbs, and additionally one of anti-CD40, anti-CD86, or anti-PD-L1 mAbs. To evaluate effector T cell activation, cells were incubated with anti-CD8 and anti-CD44 mAbs, and additionally one of anti-OX40 or anti-4-1BB mAbs. […]
# [2] = tested on: B16F10 melanoma tumors; assay: Example 1: TLR3 agonist with anti-OX40 and/or anti-4-1BB antibody, murine B16F10 melanoma model; conditions: poly(I:C) 2.5 mg/kg it x1 day 9, anti-OX40 5 mg/kg, anti-4-1BB 3 mg/kg ip x3
# Method: This example illustrates the therapeutic activity of a TLR3 agonist in combination with one or both of: i) an agonist anti-OX40 antibody and ii) an agonist anti-4-1BB antibody in a murine B16F10 melanoma model.
# as §2, §3
# (§7) The TLR3 agonist was polyinosine-polycytidylic acid [poly(I:C)], high molecular weight [a synthetic analog of double-stranded RNA (dsRNA)], purchased from InvivoGen. Poly(I:C) was dosed at 2.5 mg/kg, in phosphate buffered saline (PBS) (Life Technologies), intratumorally (it) for one dose 9 days after tumor inoculation.
# (§8) Therapeutic mouse anti-mouse 4-1BB mAb (mouse immunoglobulin G1 [mIgG1]), derived from the parental clone MAB9371 (R&D Systems), was prepared in-house. Therapeutic mouse anti-OX40 antibodies with the mIgG1 isotype (anti-OX40 mIgG1) were derived from parental clone OX86 in house. Anti-OX40 antibody and anti-4-1BB antibodies were dosed at 5 mg/kg and 3 mg/kg, respectively, in phosphate buffered saline (PBS) (Life Technologies), and dosed at 0.2 mL per mouse intraperitoneally (ip) for 3 doses 3 to 4 days apart.
# C57BL/6 mice were inoculated subcutaneously at the right flank with 0.3 x 10^6 B16F10 cells in 0.1 mL of PBS. When tumors reached target size, mice were randomized into treatment groups. Treatment was started on the same day as randomization. Tumor size was measured 3-4 times weekly in 2 dimensions using a caliper, and the volume was calculated in cubic millimeters using the formula: V=0.5 L×W^2 where L is the longest diameter of the tumor and W is the diameter perpendicular to L. Body weight was recorded weekly.
# Results are shown in FIGS. 1A-1H and summarized in Table 1 below [mean tumor size±standard deviation (SD)]. Statistical analyses were performed using GraphPad Prism 6.0. 2-way ANOVA was applied to compare the statistical differences among multiple groups relative to the isotype control or other treatment groups. P <0.05 was considered as significant difference. Tumor measurements are in mm^3. For most treatment groups, more days post-tumor inoculation (also referred to as “days post implantation”) are shown in FIGS. 1A-1 H than in the corresponding information in Table 1 (due to the reduction in the number of mice in most groups over the course of the study, and the increase in SD with a reduced number of mice).
# [3] = tested on: B16F10 melanoma tumors; assay: Example 3A: TLR3 agonist with anti-PD-1, anti-OX40, anti-4-1BB antibodies, murine B16F10 melanoma model; conditions: poly(I:C) 2.5 mg/kg it x1 day 9, anti-PD-1 15, anti-OX40 5, anti-4-1BB 3 mg/kg ip x3
# Text: This example illustrates the therapeutic activity of a TLR3 agonist in combination with i) an antagonist anti-PD-1 antibody; ii) an antagonist anti-PD-1 antibody and an agonist anti-OX40 antibody; iii) an antagonist anti-PD-1 antibody and an agonist anti-4-1-BB antibody; and iv) an antagonist anti-PD-1 antibody, an agonist anti-4-1-BB antibody, and an agonist anti-OX40 antibody in a murine B16F10 melanoma model.
# as §2
# The B16F10 melanoma cell line was purchased from American Type Culture Collection (ATCC). Cells were cultured in Dulbecco's Modified Eagle's Medium (DMEM) supplemented with 10% fetal bovine serum (FBS), 2 mM L-glutamine at 37° C. in 5% carbon dioxide (CO2), and IMPACT-tested for pathogens at Research Animal Diagnostic Laboratory (RADIL) (Columbia, MO). Pathogen-free cells growing in an exponential growth phase were harvested and used for tumor inoculation.
# as §7
# as §8, with “in house. Therapeutic mouse anti-mouse PD-1 mAb (mIgG1) was prepared in-house. Anti-PD-1, anti-OX40 antibody and” for “in house. Anti-OX40 antibody and”, “dosed at 15 mg/kg, 5 mg/kg” for “dosed at 5 mg/kg”
# C57BL/6 mice were inoculated subcutaneously at the right flank with 0.3×10^6 B16F10 cells in 0.1 mL of PBS. When tumors reached target size, mice were randomized into treatment groups. Treatment was started on the same day as randomization. Tumor size was measured 3-4 times weekly in 2 dimensions using a caliper, and the volume was calculated in cubic millimeters using the formula: V=0.5 L×W^2 where L is the longest diameter of the tumor and W is the diameter perpendicular to L. Body weight was recorded weekly.
# Results from Example 3A are shown in FIGS. 3A-3L and summarized in Table 3 below [mean tumor size±standard deviation (SD)]. Statistical analyses were performed using GraphPad Prism 6.0. 2-way ANOVA was applied to compare the statistical differences among multiple groups relative to the isotype control or other treatment groups. P<0.05 was considered as significant difference. Tumor measurements are in mm^3. For most treatment groups, more days post-tumor inoculation (also referred to as “days post implantation”) are shown in FIGS. 3A-3L than in the corresponding information in Table 3 (due to the reduction in the number of mice in most groups over the course of the study, and the increase in SD with a reduced number of mice).
# [4] = tested on: effector T cells in the tumor (TILs) (CD8+/CD44+ cells); assay: Example 5: activated effector T cells in the tumor (TILs) of B16F10 tumor mice (FACS); conditions: 24 hours after treatment, 5 mg/kg, mean from 5 mice
# Method: as §1, §2, §3, §4
# On day 0, C57BL/6 mice were inoculated subcutaneously at the right flank with 5×10^5 B16F10 cells in PBS. […] The treatment groups were 1) PBS (control); 2) poly(I:C) (TLR3 agonist); 3) CpG24555 (TLR9 agonist). Treatment was started on the same day as randomization. […]
# [5] = tested on: dendritic cells in the draining lymph nodes (CD11c+/CD11b+/CD8+ cells); assay: Example 5: activated dendritic cells in the draining lymph nodes of B16F10 tumor mice (FACS); conditions: 24 hours after treatment, 5 mg/kg, mean from 5 mice
# Method: as §1, §2, §3, §4, §5, §6
substance,measurement,setting,value
polyinosine-polycytidylic acid [TLR3 agonist],% CD40+ of CD11c+/CD11b+/CD8+ cells (activated dendritic cells),[1],20%
same,% CD86+ of CD11c+/CD11b+/CD8+ cells (activated dendritic cells),[1],22.2%
same,% PD-L1+ of CD11c+/CD11b+/CD8+ cells (activated dendritic cells),[1],23%
same,Mean Tumor Size,[2]; day 9 post-tumor inoculation,76 mm^3
same,Mean Tumor Size,[2]; day 10 post-tumor inoculation,116 mm^3
same,Mean Tumor Size,[2]; day 12 post-tumor inoculation,151 mm^3
same,Mean Tumor Size,[2]; day 14 post-tumor inoculation,196 mm^3
same,Mean Tumor Size,[2]; day 16 post-tumor inoculation,309 mm^3
same,Mean Tumor Size,[2]; day 18 post-tumor inoculation,405 mm^3
same,Mean Tumor Size,[2]; day 20 post-tumor inoculation,678 mm^3
same,Mean Tumor Size,[3]; day 9 post-tumor inoculation,74 mm^3
same,Mean Tumor Size,[3]; day 13 post-tumor inoculation,156 mm^3
same,Mean Tumor Size,[3]; day 15 post-tumor inoculation,236 mm^3
same,Mean Tumor Size,[3]; day 17 post-tumor inoculation,349 mm^3
same,Mean Tumor Size,[3]; day 20 post-tumor inoculation,796 mm^3
same,Mean Tumor Size,[3]; day 22 post-tumor inoculation,1206 mm^3
same,% 4-1BB+ of CD8+/CD44+ cells (activated effector T cells),[4],36.8%
same,% OX-40+ of CD8+/CD44+ cells (activated effector T cells),[4],55.3%
same,% CD40+ of CD11c+/CD11b+/CD8+ cells (activated dendritic cells),[5],9.9%
same,% CD86+ of CD11c+/CD11b+/CD8+ cells (activated dendritic cells),[5],7.5%
same,% PD-L1+ of CD11c+/CD11b+/CD8+ cells (activated dendritic cells),[5],9%
